Values of other authors as cited in patent US20120322767A1, “FORMULATIONS OF BISPHOSPHONATES AND VITAMIN D SUIUTABLE FOR INTERMITTENT INTRAMUSCULAR AND SUBCUTANEOUS ADMINISTRATION” (priority 2009, published 2012).

Legend:
[1] = humans, ratio of urinary or plasma concentrations (AUC) after intravenous and oral administration
[2] = man, oral, 100,000 IU, maintained for two months

| Molecule | Oral bioavailability [1] | Serum levels of calcidiol [2] |
| --- | --- | --- |
| O=P(O)(O)C(Cl)(Cl)P(=O)(O)O [clodronate] | 1-2% | – |
| NCCC(O)(P(=O)(O)O)P(=O)(O)O [pamidronate] | ~0.3% | – |
| CC(O)(P(=O)(O)O)P(=O)(O)O [etidronate] | 3-7% | – |
| vitamin D | – | > 80 nM |
